# Test system: FoxO3a
# Experiment: FoxO3a inhibition assay (GFP-FoxO3a nuclear to cytoplasmic translocation) in U2OS GFP-FoxO3a H212R reporter cells
# Format: cell-based
# Conditions: Homo sapiens, 0.5 h, serum starved overnight, 30 minutes compound treatment, ratio of nuclear to cytosolic GFP intensity, AC50 = concentration that results in 50% activation or inhibition, read-out: FoxO AC50
# Protocol: Phosphorylation of Akt on S473 and FoxO3a nuclear to cytoplasmic translocation were used as readouts of PI3K/Akt/mTOR pathway activation downstream of growth factor signaling.
# Reporter cell line. U2OS GFP-FoxO3a H212R reporter cell line was established by transducing U2OS cells with the retroviral plasmid pLEGFP-C1 containing FoxO3a H212R transgene and selecting for G418 resistant clones.
# Reporter assay. U2OS GFP-FoxO3a H212R cells were plated in 384-well plates at 4000 cells per well in 30 microliters of McCoy's 5A medium containing 10% FBS. On day 1 the cells were washed with serum free medium and serum starved overnight. On day 2 the cells were treated with different doses of the compounds for 30 minutes, fixed with 4% Paraformaldehyde for 1 hour and stained with Phospho-AKT (Ser473) antibody (Cell Signaling Technology, catalog #4060) overnight at 4° C. After nuclei staining with Hoechst 33342 (Life Technologies, catalog # H3570) the plates were imaged with InCell 2000 (GE Healthcare Bio-Sciences). FoxO3a inhibition activity is calculated as the ratio of nuclear to cytosolic GFP intensity in percent. Akt activation is measured as the total cellular intensity of Phospho-Akt antibody staining in percent. DMSO control is set as 0% activity.
row,SMILES,AC50
1,Cc1nc(C(N)=O)nn1-c1ccc(Cc2ccc(-c3ccc(CN4C[C@H]5CCN(C)[C@H]5C4)cc3)cc2)cc1 [Example 39-30],32 nM
2,"Cc1cc(C(N)=O)nn1-c1ccc(Cc2ccc(-c3ccnc(CO)c3)cc2)cc1 [Example 61, 1-(4-(4-(2-(hydroxymethyl)pyridin-4-yl)benzyl)phenyl)-5-methyl-1H-pyrazole-3-carboxamide]",187 nM
3,Cc1nc(C(N)=O)nn1-c1ccc(Cc2ccc(-c3ccc(CN4CCN5CCCCC5C4)cc3)cc2)cc1 (stereo not shown) [Example 39-21],60 nM
4,Cc1nc(C(N)=O)nn1-c1ccc(Cc2ccc(-c3ccc(CN4CCC(O)CC4)cc3)cc2)cc1 [Example 39-25],105 nM
5,Cc1nc(C(N)=O)nn1-c1ccc(Cc2ccc(-c3ccc(CN4CCCC[C@H]4CO)cc3)cc2)cc1 [Example 39-22],98 nM
6,"Cc1cc(C(N)=O)nn1-c1ccc(Cc2ccc(-c3ccc(C(=O)NCC(C)(C)O)cn3)cc2)cc1 [Example 59, 6-(4-(4-(3-carbamoyl-5-methyl-1H-pyrazol-1-yl)benzyl)phenyl)-N-(2-hydroxy-2-methylpropyl)nicotinamide]",58 nM
7,Cc1nc(C(N)=O)nn1-c1ccc(Cc2ccc(-c3ccc(CN4CCC5CN(C)CC54)cc3)cc2)cc1 (stereo not shown) [Example 39-15],5 nM
8,"Cc1cc(C(N)=O)nn1-c1ccc(Cc2ccc(-c3cnc(C(C)(C)O)nc3)cc2)cc1 [Example 60, 1-(4-(4-(2-(2-hydroxypropan-2-yl)pyrimidin-5-yl)benzyl)phenyl)-5-methyl-1H-pyrazole-3-carboxamide]",83 nM
9,Cc1nc(C(N)=O)nn1-c1ccc(Cc2ccc(-c3ccc(CN4CCN[C@@H](CO)C4)cc3)cc2)cc1 [Example 39-12],181 nM
10,Cc1nc(C(N)=O)nn1-c1ccc(Cc2ccc(-c3ccc(CN4CCCC(F)C4)cc3)cc2)cc1 (stereo not shown) [Example 39-27],46 nM
11,"Cc1cc(C(N)=O)nn1-c1ccc(Cc2ccc(-c3ccc(CN4CCN(C5COC5)CC4)cn3)cc2)cc1 [Example 33, 5-methyl-1-(4-(4-(5-((4-(oxetan-3-yl)piperazin-1-yl)methyl)pyridin-2-yl)benzyl)phenyl)-1H-pyrazole-3-carboxamide]",138 nM
12,Cc1nc(C(N)=O)nn1-c1ccc(Cc2ccc(-c3ccc(CN4C[C@@H](C)N[C@@H](C)C4)cc3)cc2)cc1 [Example 39-19],65 nM
13,Cc1nc(C(N)=O)nn1-c1ccc(Cc2ccc(-c3ccc(CN4CCCC5(COC5)C4)cc3)cc2)cc1 [Example 38-6],74 nM
14,Cc1nc(C(N)=O)nn1-c1ccc(Cc2ccc(-c3ccc(CN4CCC(CO)CC4)cc3)cc2)cc1 [Example 39-23],18 nM
15,"Cc1nc(C(N)=O)nn1-c1ccc(Cc2ccc(-c3ccc(CN4CCN[C@@H](C)C4)nc3)cc2)cc1 [Example 36, (S)-5-methyl-1-(4-(4-(6-((3-methylpiperazin-1-yl)methyl)pyridin-3-yl)benzyl)phenyl)-1H-1,2,4-triazole-3-carboxamide]",183 nM
16,Cc1nc(C(N)=O)nn1-c1ccc(Cc2ccc(-c3ccc(CN4CCN(C(C)(C)C)CC4)cc3)cc2)cc1 [Example 39-17],85 nM
17,"Cc1cc(C(N)=O)nn1-c1ccc(Cc2ccc(C34CCC(C(=O)N5CCNCC5)(CC3)CC4)cc2)cc1 [Example 42, 5-methyl-1-(4-(4-(4-(piperazine-1-carbonyl)bicyclo[2.2.2]octan-1-yl)benzyl)phenyl)-1H-pyrazole-3-carboxamide]",55 nM
18,Cc1nc(C(N)=O)nn1-c1ccc(Cc2ccc(-c3ccc(CN4CCC(N(C)C)CC4)cc3)cc2)cc1 [Example 39-2],5 nM
19,Cc1nc(C(N)=O)nn1-c1ccc(Cc2ccc(-c3ccc(CN4CC(O)C4)cc3)cc2)cc1 [Example 39-8],864 nM
20,"Cc1cc(C(N)=O)nn1-c1ccc(Cc2ccc(-c3ccc(C(=O)N4CCNCC4)cn3)cc2)cc1 [Example 27, 5-methyl-1-(4-(4-(5-(piperazine-1-carbonyl)pyridin-2-yl)benzyl)phenyl)-1H-pyrazole-3-carboxamide]",213 nM
21,Cc1nc(C(N)=O)nn1-c1ccc(Cc2ccc(-c3ccc(CN4CCC(F)(F)CC4)cc3)cc2)cc1 [Example 39-20],140 nM
22,Cc1nc(C(N)=O)nn1-c1ccc(Cc2ccc(-c3ccc(CN4CC(C)(O)C4)cc3)cc2)cc1 [Example 39-24],406 nM
23,Cc1nc(C(N)=O)nn1-c1ccc(Cc2ccc(-c3ccc(CN4CC5(CCCO5)C4)cc3)cc2)cc1 [Example 39-11],241 nM

row,SMILES,AC50
1,Cc1nc(C(N)=O)nn1-c1ccc(Cc2ccc(-c3ccc(CN4CCC(S(C)(=O)=O)CC4)cc3)cc2)cc1 [Example 39-31],49 nM
2,Cc1nc(C(N)=O)nn1-c1ccc(Cc2ccc(-c3ccc(CN4CC(F)(F)C4)cc3)cc2)cc1 [Example 39-33],42 nM
3,"Cc1nc(C(N)=O)nn1-c1ccc(Cc2ccc(-c3ccc(C(C)(C)NCC(C)(C)O)cc3)cc2)cc1 [Example 64, 1-(4-((4′-(2-((2-hydroxy-2-methylpropyl)amino)propan-2-yl)-[1,1′-biphenyl]-4-yl)methyl)phenyl)-5-methyl-1H-1,2,4-triazole-3-carboxamide]",62 nM
4,Cc1nc(C(N)=O)nn1-c1ccc(Cc2ccc(-c3ccc(CN4C[C@H]5CN(C)C[C@H]5C4)cc3)cc2)cc1 [Example 38-3],35 nM
5,Cc1nc(C(N)=O)nn1-c1ccc(Cc2ccc(-c3ccc(CN4CCC(C)(O)C4)cc3)cc2)cc1 (stereo not shown) [Example 39-10],13 nM
6,Cc1nc(C(N)=O)nn1-c1ccc(Cc2ccc(-c3ccc(CN4CCCN(C)CC4)cc3)cc2)cc1 [Example 39-28],39 nM
7,"Cc1cc(C(N)=O)nn1-c1ccc(Cc2ccc(-c3ccc(C(C)(C)CO)cn3)cc2)cc1 [Example 57, 1-(4-(4-(5-(1-hydroxy-2-methylpropan-2-yl)pyridin-2-yl)benzyl)phenyl)-5-methyl-1H-pyrazole-3-carboxamide]",49 nM
8,"Cc1cc(C(N)=O)nn1-c1ccc(Cc2ccc(C34CCC(C(=O)N5CCN(C)CC5)(CC3)CC4)cc2)cc1 [Example 43, 5-methyl-1-(4-(4-(4-(4-methylpiperazine-1-carbonyl)bicyclo[2.2.2]octan-1-yl)benzyl)phenyl)-1H-pyrazole-3-carboxamide]",17 nM
9,"Cc1nc(C(N)=O)nn1-c1ccc(Cc2ccc(-c3ccc(O[C@H]4CCN(C)C4)cc3)cc2)cc1 [Example 62, (S)-5-methyl-1-(4-((4′-((1-methylpyrrolidin-3-yl)oxy)-[1,1′-biphenyl]-4-yl)methyl)phenyl)-1H-1,2,4-triazole-3-carboxamide]",20 nM
10,"Cc1nnc(-c2cccc(-c3ccc(Cc4ccc(-n5nc(C(N)=O)cc5C)cc4)cc3)c2)o1 [Example 3-7, 5-methyl-1-(4-((3′-(5-methyl-1,3,4-oxadiazol-2-yl)-[1,1′-biphenyl]-4-yl)methyl)phenyl)-1H-pyrazole-3-carboxamide]",499 nM
11,Cc1nc(C(N)=O)nn1-c1ccc(Cc2ccc(-c3ccc(CN4CCCC(C(C)(C)O)C4)cc3)cc2)cc1 (stereo not shown) [Example 39-7],29 nM
12,"Cc1nc(C(N)=O)nn1-c1ccc(Cc2ccc(-c3ccc(O[C@@H]4CCN(C)C4)cc3)cc2)cc1 [Example 63, (R)-5-methyl-1-(4-((4′-((1-methylpyrrolidin-3-yl)oxy)-[1,1′-biphenyl]-4-yl)methyl)phenyl)-1H-1,2,4-triazole-3-carboxamide]",11 nM
13,Cc1nc(C(N)=O)nn1-c1ccc(Cc2ccc(-c3ccc(CN4CC[C@@H](F)C4)cc3)cc2)cc1 [Example 39-13],79 nM
14,Cc1nc(C(N)=O)nn1-c1ccc(Cc2ccc(-c3ccc(CN4CCNC(C)(C)C4)cc3)cc2)cc1 [Example 39-18],81 nM
15,Cc1nc(C(N)=O)nn1-c1ccc(Cc2ccc(-c3ccc(CN4CCC(S(C)(=O)=O)C4)cc3)cc2)cc1 (stereo not shown) [Example 39-14],54 nM
16,Cc1nc(C(N)=O)nn1-c1ccc(Cc2ccc(-c3ccc(CN4C[C@@H]5[C@@H](CO)[C@@H]5C4)cc3)cc2)cc1 [Example 39-34],10 nM
17,Cc1nc(C(N)=O)nn1-c1ccc(Cc2ccc(-c3ccc(CN4C[C@H]5COC[C@H]5C4)cc3)cc2)cc1 [Example 39-26],31 nM
18,Cc1nc(C(N)=O)nn1-c1ccc(Cc2ccc(-c3ccc(CN4CCCC(C)(O)C4)cc3)cc2)cc1 (stereo not shown) [Example 39-16],56 nM
19,Cc1nc(C(N)=O)nn1-c1ccc(Cc2ccc(-c3ccc(CN4CCC(C(F)(F)F)CC4)cc3)cc2)cc1 [Example 39-35],145 nM
20,Cc1nc(C(N)=O)nn1-c1ccc(Cc2ccc(-c3ccc(CN4C[C@@H](C)N[C@H](C)C4)cc3)cc2)cc1 [Example 39-9],123 nM
21,Cc1nc(C(N)=O)nn1-c1ccc(Cc2ccc(-c3ccc(CN4C[C@H](O)[C@@H](O)C4)cc3)cc2)cc1 [Example 39-29],180 nM
22,"Cc1nc(C(N)=O)nn1-c1ccc(Cc2ccc(C3CC4(CC(C(=O)N5CCNCC5)C4)C3)cc2)cc1 (stereo not shown) [Example 44, 5-methyl-1-(4-(4-(6-(piperazine-1-carbonyl)spiro[3.3]heptan-2-yl)benzyl)phenyl)-1H-1,2,4-triazole-3-carboxamide]",134 nM
23,"Cc1nc(C(N)=O)nn1-c1ccc(Cc2ccc(-c3ccc(CN4CCC5(COC5)C4)cc3)cc2)cc1 [Example 38-1, 1-(4-((4′-((2-oxa-6-azaspiro[3.4]octan-6-yl)methyl)-[1,1′-biphenyl]-4-yl)methyl)phenyl)-5-methyl-1H-1,2,4-triazole-3-carboxamide]",2 nM

# From patent publication US10633350B2, “Diphenyl derivatives and uses thereof” (NOVARTIS AG, priority 2017, dated 2020)
